Data on 2 molecules can be found in patent publication US9079895B2, “Morpholino compounds, uses and methods” (University of Dundee, priority 2012, dated 2015).

Molecules are shown by their SMILES. Counter-ions that a name gives are not always drawn.

The target in assay [1] is 5HT2a receptor (Homo sapiens (Human), UniProt P28223). The assay can be described thus: Secondary radioligand binding assay, 5HT2a. As to conditions: average of at least two experiments.
Experimental: (§1) Assay Buffer: Standard Binding Buffer (50 mM Tris-HCl, 10 mM MgCl2, 1 mM EDTA, pH 7.4)
(§2) Membrane Fraction Source: Transiently or stably transfected cell lines (e.g., HEK293, COS, CHO, NIH3T3)
Assay [2] deals with 5HT1a receptor (Homo sapiens (Human), UniProt P08908). The assay can be described thus: Secondary radioligand binding assay, 5HT1a. Particulars: average of at least two experiments.
Chain of 5HT1a receptor (P08908 whole entry): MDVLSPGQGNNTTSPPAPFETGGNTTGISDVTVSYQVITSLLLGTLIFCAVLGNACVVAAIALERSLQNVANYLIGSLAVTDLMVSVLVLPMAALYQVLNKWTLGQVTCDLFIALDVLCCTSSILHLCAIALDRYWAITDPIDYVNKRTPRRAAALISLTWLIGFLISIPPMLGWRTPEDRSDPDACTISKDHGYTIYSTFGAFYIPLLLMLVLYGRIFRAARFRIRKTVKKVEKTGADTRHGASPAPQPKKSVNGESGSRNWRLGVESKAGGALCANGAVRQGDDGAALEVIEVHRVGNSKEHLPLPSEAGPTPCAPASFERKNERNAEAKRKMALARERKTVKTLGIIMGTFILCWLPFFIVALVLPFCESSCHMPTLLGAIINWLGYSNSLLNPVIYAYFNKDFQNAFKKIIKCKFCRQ
Experimental: as §1, §2
For assay [3], the target named is 5HT2c receptor (Homo sapiens (Human), UniProt P28335). The assay can be described thus: Secondary radioligand binding assay, 5HT2c. As to conditions: average of at least two experiments.
Chain of 5HT2c receptor (P28335 33-458): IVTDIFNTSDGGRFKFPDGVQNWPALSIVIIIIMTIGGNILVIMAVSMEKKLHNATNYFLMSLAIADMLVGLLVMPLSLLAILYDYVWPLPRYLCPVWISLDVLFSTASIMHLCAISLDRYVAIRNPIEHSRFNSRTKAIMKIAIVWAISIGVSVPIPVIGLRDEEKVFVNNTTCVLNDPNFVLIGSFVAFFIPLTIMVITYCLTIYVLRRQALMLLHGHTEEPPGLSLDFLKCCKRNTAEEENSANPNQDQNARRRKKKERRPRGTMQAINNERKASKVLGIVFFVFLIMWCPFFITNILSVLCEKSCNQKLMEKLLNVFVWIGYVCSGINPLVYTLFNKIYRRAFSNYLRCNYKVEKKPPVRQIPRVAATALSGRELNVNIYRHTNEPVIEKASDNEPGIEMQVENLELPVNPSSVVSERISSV
Experimental: as §1, §2
Assay [4] deals with dopamine D4 receptor (Homo sapiens (Human), UniProt P21917). Nature of the assay: Secondary radioligand binding assay, D4. As to conditions: receptor binding; average of at least two experiments; read-out: Ki D4. As for the experimental part:
1. Secondary Radioligand Binding Assays
The detailed experimental protocols for the radioligand and functional receptor assays are available on the NIMH PDSP website at http://pdsp.med.unc.edu/UNC-CH %20Protocol %20Book.pdf.
Radioligand is diluted to five times the assay concentration (see Table 18) in Standard Binding Buffer. Typically, the assay concentration of radioligand is a value between one half the KD and the KD of a particular radioligand at its target. 50 μl aliquots of radioligand are dispensed into the wells of a 96-well plate containing 100 μl of Standard Binding Buffer. Then, duplicate 50 μl aliquots of the test and reference compound dilutions are added.
The 250 μl reactions are incubated at room temperature and shielded from light (to prevent photolysis of light-sensitive ligands) for 1.5 hours, then harvested by rapid filtration onto Whatman GF/B glass fiber filters pre-soaked with 0.3% polyethyleneimine using a 96-well Brandel harverster. Four rapid 500 μl washes are performed with chilled Standard Binding Buffer to reduce non-specific binding. Filters are placed in 6 ml scintillation tubes and allowed to dry overnight. The next day, 4 ml of EcoScint scintillation cocktail (National Diagnostics) are added to each tube. The tubes are capped, labeled, and counted by liquid scintillation counting. […] The filter mats are dried, then scintillant is melted onto the filters and the radioactivity retained on the filters is counted in a Microbeta scintillation counter.
Raw data (dpm) representing total radioligand binding (i.e. specific+non-specific binding) are plotted as a function of the logarithm of the molar concentration of the competitor (i.e. test or reference compound).
B. Dopamine Receptors: D1, D2, D3, D4, D5 Assay Buffers: Dopamine Binding Buffer (50 mM NaCl, 50 mM HEPES-HCl, 5 mM MgCl2, 0.5 mM EDTA, pH 7.4) Membrane Fraction Source: Transiently or stably transfected cell lines (e.g. HEK293, COS, CHO, NIH3T3)
The method is carried out in the manner described for the serotonin receptor assay above. Eleven dilutions (5× assay concentration) of the test and reference (see Table 19) compounds are prepared in Dopamine Binding Buffer by serial dilution, as previously described. Radioligand is diluted to five times the assay concentration (see Table 20) in Dopamine Binding Buffer.

Chain of 5HT2a receptor (P28223 whole entry): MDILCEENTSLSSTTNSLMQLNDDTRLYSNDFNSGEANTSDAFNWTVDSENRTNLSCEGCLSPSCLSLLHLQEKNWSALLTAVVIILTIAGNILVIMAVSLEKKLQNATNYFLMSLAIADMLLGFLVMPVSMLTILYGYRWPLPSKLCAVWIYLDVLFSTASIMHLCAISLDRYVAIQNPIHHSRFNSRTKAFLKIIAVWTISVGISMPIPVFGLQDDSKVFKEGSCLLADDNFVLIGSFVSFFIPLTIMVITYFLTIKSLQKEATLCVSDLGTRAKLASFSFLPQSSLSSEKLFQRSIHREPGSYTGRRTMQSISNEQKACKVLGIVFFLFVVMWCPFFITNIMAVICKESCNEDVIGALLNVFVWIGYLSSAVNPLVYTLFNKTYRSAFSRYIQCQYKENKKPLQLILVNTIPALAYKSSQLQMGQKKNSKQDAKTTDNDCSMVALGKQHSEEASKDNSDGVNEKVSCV
Chain of dopamine D4 receptor (P21917 whole entry, species assumed): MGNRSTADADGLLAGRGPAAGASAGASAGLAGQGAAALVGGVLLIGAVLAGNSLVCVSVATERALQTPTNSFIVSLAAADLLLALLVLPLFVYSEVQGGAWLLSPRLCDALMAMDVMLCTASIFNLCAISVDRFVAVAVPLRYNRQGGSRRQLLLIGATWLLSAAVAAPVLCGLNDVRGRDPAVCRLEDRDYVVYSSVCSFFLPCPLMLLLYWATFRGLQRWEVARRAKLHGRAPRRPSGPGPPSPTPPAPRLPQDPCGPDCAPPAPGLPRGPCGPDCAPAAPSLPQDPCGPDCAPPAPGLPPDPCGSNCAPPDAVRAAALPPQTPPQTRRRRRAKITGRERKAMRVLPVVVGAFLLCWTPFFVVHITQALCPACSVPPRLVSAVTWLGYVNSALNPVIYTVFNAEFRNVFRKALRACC

For `COc1cccc(OC[C@H]2CN(CCN3CCc4ccccc43)CCO2)c1` [Compound 25r, (R)-4-(2-(Indolin-1-yl)ethyl)-2-((3-methoxyphenoxy)methyl)morpholine], the Ki was 3.78 µM in assay [1] and 1.47 µM in assay [2].
For `Fc1ccc(OC[C@@H]2CN(CCN3CCc4ccccc43)CCO2)cc1` [Compound 32s, (S)-2-((4-fluorophenoxy)methyl)-4-(2-(indolin-1-yl)ethyl)morpholine hydrochloride], the Ki worked out at 1.11 µM in assay [3], 0.374 µM in assay [1] and 3.93 µM in assay [4].
